# Target: T1, Human Rheumatoid Synovial Collagenase (Homo sapiens, UniProt P03956)
# T1 construct: from tissue
# T1 sequence (P03956 100-469): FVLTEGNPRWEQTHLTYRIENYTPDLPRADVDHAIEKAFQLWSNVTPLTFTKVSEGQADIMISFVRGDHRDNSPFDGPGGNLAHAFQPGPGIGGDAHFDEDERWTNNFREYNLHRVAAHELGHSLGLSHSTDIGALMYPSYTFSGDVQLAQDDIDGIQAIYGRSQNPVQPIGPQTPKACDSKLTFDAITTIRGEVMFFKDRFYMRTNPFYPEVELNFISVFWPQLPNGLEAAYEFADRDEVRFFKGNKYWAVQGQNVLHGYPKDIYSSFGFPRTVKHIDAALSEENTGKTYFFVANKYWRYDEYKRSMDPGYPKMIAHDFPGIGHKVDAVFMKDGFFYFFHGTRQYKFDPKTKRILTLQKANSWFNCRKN
# Assay: Collagenase inhibition (acetyl 14C collagen hydrolysis, procedure of Cawston and Barrett)
# Format: biochemical
# Settings: incubated at 37° C. for 16 hours with native acetyl 14C collagen and collagenase, Tris HCl-CaCl2, pH 7.6
# Protocol: This was determined following the procedure of Cawston and Barrett, (Anal. […] The collagen is acetyl ^14 C collagen. The samples are centrifuged to sediment undigested collagen and an aliquot of the radioactive supernatant removed for assay on a scintillation counter as a measure of hydrolysis.
row,SMILES,IC50 [µM]
1,"CNC(=O)[C@H](Cc1ccc(OC)cc1)NC(=O)C(CC(C)C)C(C)C(=O)NO (single isomer, unassigned) [3(A), N-[3-(N'-Hydroxycarboxamido)-2-(2-methylpropyl)butanoyl]-O-methyl-L-tyrosine N-Methylamide]",0.4
2,"CNC(=O)[C@H](Cc1ccc(OC)cc1)NC(=O)C(CC(C)C)C(C)C(=O)NO (single isomer, unassigned) [3(B), N-[3-(N'-Hydroxycarboxamido)-2-(2-methylpropyl)butanoyl]-O-methyl-L-tyrosine N-Methylamide]",20
3,"CNC(=O)[C@H](Cc1ccc(OC)cc1)NC(=O)C(CC(C)C)C(C)C(=O)NO (single isomer, unassigned) [3(C), N-[3-(N'-Hydroxycarboxamido)-2-(2-methylpropyl)butanoyl]-O-methyl-L-tyrosine N-Methylamide]",0.02
4,"CNC(=O)[C@H](Cc1ccc(OC)cc1)NC(=O)C(CC(C)C)C(C)C(=O)NO (single isomer, unassigned) [3(D), N-[3-(N'-Hydroxycarboxamido)-2-(2-methylpropyl)butanoyl]-O-methyl-L-tyrosine N-Methylamide]",0.3
5,"CNC(=O)[C@H](Cc1ccc(OC)cc1)NC(=O)C(CC(C)C)C(C(=O)NO)c1ccccc1 (single isomer, unassigned) [4(A), N-[3-(N'-Hydroxycarboxamido)-2-(2-methylpropyl)-3-phenylpropanoyl]-O-methyl-L-tyrosine N-Methylamide]",0.6
6,"CNC(=O)[C@H](Cc1ccc(OC)cc1)NC(=O)C(CC(C)C)C(C(=O)NO)c1ccccc1 (single isomer, unassigned) [4(B), N-[3-(N'-Hydroxycarboxamido)-2-(2-methylpropyl)-3-phenylpropanoyl]-O-methyl-L-tyrosine N-Methylamide]",1
7,"CNC(=O)[C@H](C)NC(=O)C(CC(=O)NO)CC(C)C (single isomer, unassigned) [8(A), N-[3-(N'-Hydroxycarboxamido)-2-(2-methylpropyl)propanoyl]-L-alanine N-Methylamide]",0.15
8,"CNC(=O)[C@H](Cc1ccc(O)cc1)NC(=O)C(CC(=O)NO)CC(C)C (single isomer, unassigned) [9(A), N-[3-(N'-Hydroxycarboxamido)-2-(2-methylpropyl)propanoyl]-L-tyrosine N-Methylamide]",0.037
9,"CNC(=O)[C@H](Cc1ccc(O)cc1)NC(=O)C(CC(=O)NO)CC(C)C (single isomer, unassigned) [9(B), N-[3-(N'-Hydroxycarboxamido)-2-(2-methylpropyl)propanoyl]-L-tyrosine N-Methylamide]",0.52

# Other lines, results leading:
row,IC50 [µM],SMILES
1,1,"CCCCC(CC(=O)NO)C(=O)N[C@@H](Cc1ccc(OC)cc1)C(=O)NC (single isomer, unassigned) [12(B)]"
2,5,"CNC(=O)[C@H](Cc1ccc(OC)cc1)NC(=O)C(CC(=O)NO)Cc1ccccc1 (single isomer, unassigned) [13(A), N-[3-(N'-Hydroxycarboxamido)-2-benzylpropanoyl]-O-methyl-L-tyrosine N-Methylamide]"
3,> 100,"CNC(=O)[C@H](Cc1ccc(OC)cc1)NC(=O)C(CC(=O)NO)Cc1ccccc1 (single isomer, unassigned) [13(B), N-[3-(N'-Hydroxycarboxamido)-2-benzylpropanoyl]-O-methyl-L-tyrosine N-Methylamide]"
4,0.2,"CCCCC(C(=O)NO)C(CC(C)C)C(=O)N[C@@H](Cc1ccc(OC)cc1)C(=O)NC (single isomer, unassigned) [18(A), N-[3-(N'-Hydroxycarboxamido)-2-(2-methylpropyl)heptanoy]-O-methyl-L-tyrosine N-Methylamide]"
5,> 100,"CCCCC(C(=O)NO)C(CC(C)C)C(=O)N[C@@H](Cc1ccc(OC)cc1)C(=O)NC (single isomer, unassigned) [18(B), N-[3-(N'-Hydroxycarboxamido)-2-(2-methylpropyl)heptanoy]-O-methyl-L-tyrosine N-Methylamide]"
6,100,"CNC(=O)[C@H](C)NC(=O)C(CC(C)C)C(C)C(=O)NO (single isomer, unassigned) [19(A), N-[3-(N'-Hydroxycarboxamido)-2-(2-methylpropyl)butanoyl]-L-alanine N-Methylamide]"
7,0.3,"CNC(=O)[C@H](C)NC(=O)C(CC(C)C)C(C)C(=O)NO (single isomer, unassigned) [19(B), N-[3-(N'-Hydroxycarboxamido)-2-(2-methylpropyl)butanoyl]-L-alanine N-Methylamide]"
8,0.03,CCCCC(CC(=O)NO)C(=O)N[C@@H](Cc1ccc(OC)cc1)C(=O)NC (stereo partly drawn) [12(A)]
9,100 to 1000,"CNC(=O)[C@H](Cc1ccc(OC)cc1)NC(=O)C(C)CC(=O)NO (stereo partly drawn) [Example 5, N-[3-(N'-Hydroxycarboxamido)-2-methylpropanoyl]-O-methyl-L-tyrosine N-Methylamide]"
10,> 1000,"CNC(=O)[C@H](Cc1ccc(OC)cc1)NC(=O)CCC(=O)NO [Example 6, N-[3-(N'-Hydroxycarboxamido)propanoyl]-O-methyl-L-tyrosine N-Methylamide]"
11,0.7,"CNC(=O)[C@H](Cc1ccc(OC)cc1)NC(=O)C(=CC(=O)NO)CC(C)C [Example 7, N-[3-(N'-Hydroxycarboxamido)-2-(2-methylpropyl)propenoyl]-O-methyl-L-tyrosine N-Methylamide]"
12,1,"CNC(=O)[C@H](Cc1ccc(OC)cc1)NC(=O)C(CC(C)C)=C(C)C(=O)NO [Example 20, N-[3-(N'-Hydroxycarboxamido)-2-(2-methylpropyl)-Δ^2,3-butenoyl]-O-methyl-L-tyrosine N Methylamide]"

# Reference: US4743587A, “Hydroxamic acid based collagenase inhibitors” (G. D. Searle & Co., priority 1986, dated 1988)
